Experiment [1] has as its target Vascular endothelial growth factor receptor 2 (Homo sapiens, UniProt P35968). Briefly: Inhibition of KDR after 2 hrs incubation.
A further experiment concerns HUVEC. The experiment is described as follows: Antiproliferative activity against HUVEC after 72 hrs by WST8 dye reduction assay. The note with it: Homo sapiens. It counts as functional, cell-based. (In general: Formazan colour is commonly taken as a measure of viable cells.)

pIC50: −log10 of the molar value.

Vascular endothelial growth factor receptor 2, sequence (P35968 whole entry): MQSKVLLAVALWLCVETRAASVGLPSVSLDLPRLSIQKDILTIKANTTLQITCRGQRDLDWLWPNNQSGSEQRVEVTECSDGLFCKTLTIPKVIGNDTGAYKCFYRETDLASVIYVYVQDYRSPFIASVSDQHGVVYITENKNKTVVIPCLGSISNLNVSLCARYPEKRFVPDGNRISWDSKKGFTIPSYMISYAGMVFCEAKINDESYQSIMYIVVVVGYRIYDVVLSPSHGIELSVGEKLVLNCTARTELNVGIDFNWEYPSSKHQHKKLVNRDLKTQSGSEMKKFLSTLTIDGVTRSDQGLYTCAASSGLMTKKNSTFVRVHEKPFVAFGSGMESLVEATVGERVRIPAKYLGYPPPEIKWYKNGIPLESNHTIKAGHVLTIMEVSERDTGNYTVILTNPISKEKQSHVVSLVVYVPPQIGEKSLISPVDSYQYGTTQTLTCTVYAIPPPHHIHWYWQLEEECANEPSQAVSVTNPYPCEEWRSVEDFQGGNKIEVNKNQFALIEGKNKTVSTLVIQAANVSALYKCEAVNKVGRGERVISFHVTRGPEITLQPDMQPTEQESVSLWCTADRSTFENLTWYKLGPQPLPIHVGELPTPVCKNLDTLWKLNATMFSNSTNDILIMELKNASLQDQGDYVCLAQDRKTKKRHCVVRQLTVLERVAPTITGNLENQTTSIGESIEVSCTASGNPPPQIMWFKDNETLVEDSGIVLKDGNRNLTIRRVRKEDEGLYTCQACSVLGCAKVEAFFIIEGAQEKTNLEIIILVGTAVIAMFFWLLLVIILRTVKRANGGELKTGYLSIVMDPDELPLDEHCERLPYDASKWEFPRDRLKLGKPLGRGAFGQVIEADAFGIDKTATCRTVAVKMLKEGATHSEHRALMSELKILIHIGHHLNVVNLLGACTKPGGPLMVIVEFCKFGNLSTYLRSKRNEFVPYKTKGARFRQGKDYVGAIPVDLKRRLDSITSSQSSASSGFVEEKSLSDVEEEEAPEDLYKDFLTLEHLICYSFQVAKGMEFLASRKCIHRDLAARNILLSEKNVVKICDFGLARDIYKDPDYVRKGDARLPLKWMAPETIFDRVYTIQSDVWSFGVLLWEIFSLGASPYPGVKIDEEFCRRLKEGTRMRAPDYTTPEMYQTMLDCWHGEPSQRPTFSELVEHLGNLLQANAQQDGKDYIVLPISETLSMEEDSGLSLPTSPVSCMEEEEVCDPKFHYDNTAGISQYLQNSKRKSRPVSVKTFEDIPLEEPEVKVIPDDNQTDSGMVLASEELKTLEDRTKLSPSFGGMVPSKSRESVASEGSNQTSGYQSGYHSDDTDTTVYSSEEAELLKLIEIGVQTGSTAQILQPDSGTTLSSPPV

What is called pIC50 is −log10 of the IC50, conventionally taken in molar units. As to `CC(=O)Oc1c(-c2ccc(O)c(O)c2)c(O)c(O)c2c1oc1cc(O)c(O)cc12` [BOLETOPSIN C], the pIC50 in experiment [1] is 4.15; in the experiment with HUVEC, 5.04.

Source of the values: ChEMBL document CHEMBL1158547, “KDR Kinase Inhibitor Isolated from the Mushroom Boletopsis leucomelas” (J Nat Prod, 2010).
